Measurements published in ChEMBL document CHEMBL5257037, “Side Chain Cyclized Aromatic Amino Acids: Great Tools as Local Constraints in Peptide and Peptidomimetic Design” (J Med Chem, 2016).
Values belong to the compound of their own block, whether it stands above or below them. Where a SMILES comes first, the peptide text is derived from it. [ ]: non-standard residue; d: D form. Gly(9-fluorenyl) = N[C@H](C(=O)O)C1c2ccccc2-c2ccccc21; Tic = O=C(O)[C@@H]1Cc2ccccc2CN1

What was measured:
B2 bradykinin receptor [1] = target: T1, B2 bradykinin receptor (Homo sapiens, UniProt P30411); test: Binding affinity to B2 bradykinin receptor (unknown origin)
T1 sequence (P30411 whole entry): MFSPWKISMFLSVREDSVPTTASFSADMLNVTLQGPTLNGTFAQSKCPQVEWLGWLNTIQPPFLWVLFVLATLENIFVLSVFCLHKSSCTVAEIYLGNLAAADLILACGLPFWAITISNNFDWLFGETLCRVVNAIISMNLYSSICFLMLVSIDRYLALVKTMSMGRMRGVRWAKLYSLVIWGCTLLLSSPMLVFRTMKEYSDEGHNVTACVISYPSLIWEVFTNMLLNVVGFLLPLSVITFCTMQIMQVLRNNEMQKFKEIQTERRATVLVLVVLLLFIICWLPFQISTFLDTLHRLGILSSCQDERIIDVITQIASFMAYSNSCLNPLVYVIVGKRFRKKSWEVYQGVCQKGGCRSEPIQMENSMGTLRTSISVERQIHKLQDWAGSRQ

B2 bradykinin receptor [2] = target: T1, B2 bradykinin receptor; test: Antagonist potency at B2 bradykinin receptor (unknown origin); conditions: read-out: pA2 (converted)
Neprilysin = Neprilysin (Homo sapiens, UniProt P08473); test: Binding affinity to neutral endopeptidase (unknown origin) assessed as inhibition constant
[3] = target: T2, Angiotensin-converting enzyme (Homo sapiens, UniProt P12821); test: Binding affinity to angiotensin-converting enzyme (unknown origin) assessed as inhibition constant
[4] = Inhibition of farnesyltransferase (unknown origin); parameters: species or system Homo sapiens
Substance-P receptor [5] = target: Substance-P receptor (Homo sapiens, UniProt P25103); test: Inhibition of [3H]SP binding to human neurokinin receptor 1 expressed in CHO cells; type: cell-based
[6] = target: T2, Angiotensin-converting enzyme; test: Inhibition of angiotensin-converting enzyme (unknown origin)
Substance-P receptor [7] = target: Substance-P receptor (Rattus norvegicus, UniProt P14600); test: Inhibition of [125I]BHSP binding to neurokinin receptor 1 in rat brain synaptosomes; type: subcellular, Synaptosome

- Ki (B2 bradykinin receptor [1]; read-out: Ki): 0.18 nM
- Kb (B2 bradykinin receptor [2]): 0.398 nM
SMILES: N=C(N)NCCCC(NC(=O)[C@@H]1C[C@@H]2CCC[C@@H]2N1C(=O)[C@H]1Cc2ccccc2CN1C(=O)[C@H](CO)NC(=O)[C@H](Cc1cccs1)NC(=O)CNC(=O)[C@@H]1C[C@@H](O)CN1C(=O)[C@@H]1CCCN1C(=O)[C@H](CCCNC(=N)N)NC(=O)[C@H](N)CCCNC(=N)N)C(=O)O (some centres not stated)

- Ki (Neprilysin): 5 nM
- Ki [3]: 2 nM
SMILES: O=C(CS)N[C@H]1Cc2ccccc2[C@H]2CCC[C@@H](C(=O)O)N2C1=O

- Ki (B2 bradykinin receptor [1]; read-out: pKi (converted)): 794 nM
SMILES: N=C(N)NCCC[C@H](NC(=O)CN1Cc2ccccc2CC(NC(=O)[C@H](CO)NC(=O)[C@H](Cc2ccccc2)NC(=O)CNC(=O)[C@@H]2CCCN2C(=O)[C@@H]2CCCN2C(=O)[C@@H](N)CCCNC(=N)N)C1=O)C(=O)O (mixture of isomers)

- Ki (B2 bradykinin receptor [1]; read-out: pKi (converted)): 2510 nM
SMILES: N=C(N)NCCC[C@H](NC(=O)CN1Cc2ccccc2C[C@@H](NC(=O)[C@H](CO)NC(=O)[C@H](Cc2ccccc2)NC(=O)CNC(=O)[C@@H]2CCCN2C(=O)[C@@H]2CCCN2C(=O)[C@@H](N)CCCNC(=N)N)C1=O)C(=O)O

- IC50 [4]: 250 nM
SMILES: CSCC[C@H](NC(=O)[C@H](Cc1ccccc1)NC(=O)[C@@H](NC(=O)[C@H](CS)NC(C)=O)C(C)C)C(=O)O (Ac-CVFM-OH)

- Ki (Substance-P receptor [5]): 765 nM
SMILES: CC(=O)NC1(C(=O)OCc2cc(C(F)(F)F)cc(C(F)(F)F)c2)CCc2[nH]c3ccccc3c2C1 (configuration not stated)

- Ki (B2 bradykinin receptor [1]; read-out: Ki): 876 nM
- Kb (B2 bradykinin receptor [2]): 3980 nM
SMILES: N=C(N)NCCC[C@@H](N)C(=O)N[C@@H](CCCNC(=N)N)C(=O)N1CCC[C@H]1C(=O)N1C[C@H](O)C[C@H]1C(=O)NCC(=O)N[C@@H](Cc1cccs1)C(=O)N[C@H]1CSSC[C@@H](C(=O)N[C@@H](CCCNC(=N)N)C(=O)O)NC(=O)[C@H](Cc2ccccc2)NC(=O)[C@H](Cc2ccccc2)NC1=O

- IC50 [6]: 3.6 nM
SMILES: CCC[C@H](N[C@@H](C)C(=O)N1[C@H](C(=O)O)C[C@@H]2CCCC[C@@H]21)C(=O)OCC [PERINDOPRIL]

- IC50 [4]: 0.37 nM
SMILES: CSCC[C@H](NC(=O)[C@@H]1Cc2ccccc2CN1C[C@@H](NC(=O)[C@@H](N)CS)C(C)C)C(=O)O

- IC50 [4]: 11 nM
SMILES: CSCC[C@H](NC(=O)[C@@H]1Cc2ccccc2CN1C(=O)[C@@H](NC(=O)[C@H](CS)NC(C)=O)C(C)C)C(=O)O (Ac-CV[Tic]M-OH)

- IC50 [6]: 4.2 nM
SMILES: CCOC(=O)[C@H](CCc1ccccc1)N[C@@H](C)C(=O)N1[C@H](C(=O)O)C[C@@H]2CCC[C@@H]21

- IC50 [4]: 5 nM
SMILES: CSCC[C@H](NC(=O)[C@H]1Cc2ccccc2CN1C(=O)[C@H](C(C)C)N(C)C(=O)[C@H](CS)NC(=O)[C@@H](N)CCCCN)C(=O)O

- Ki (B2 bradykinin receptor [1]; read-out: pKi (converted)): 316 nM
- Kb (B2 bradykinin receptor [2]): 2510 nM
SMILES: N=C(N)NCCC[C@@H](N)C(=O)N[C@@H](CCCNC(=N)N)C(=O)N1CCC[C@H]1C(=O)N1C[C@H](O)C[C@H]1C(=O)NCC(=O)N[C@@H](Cc1cccs1)C(=O)N[C@@H](CO)C(=O)N[C@@H]1Cc2ccccc2CN(CC(=O)N[C@@H](CCCNC(=N)N)C(=O)O)C1=O

- Ki (Substance-P receptor [5]): 200 nM
SMILES: CC(C)C[C@H](NC(=O)CNC(=O)OCc1ccccc1)C(=O)NC1(C(=O)OCc2cc(C(F)(F)F)cc(C(F)(F)F)c2)CNc2[nH]c3ccccc3c2C1 (some centres not stated)

- Ki (Neprilysin): 330 nM
- Ki [3]: 50000 nM
SMILES: CC(C)C[C@@H](C(=O)O)N1CCO[C@@H](c2ccccc2)[C@H](NC(=O)[C@@H](S)Cc2ccccc2)C1=O

- IC50 (Substance-P receptor [7]): 3 nM
SMILES: CC[C@H](C)[C@H](NC(=O)CNC(=O)[C@@H](NC(=O)[C@H](Cc1ccccc1)NC(=O)[C@H](CCC(N)=O)NC(=O)[C@H](CCC(=O)O)NC(=O)[C@H](CCCCN)NC(=O)[C@@H]1CCCN1C(=O)[C@@H](N)CCCNC(=N)N)C1c2ccccc2-c2ccccc21)C(=O)N[C@@H](CCSC)C(=O)O (H-RPKEQF[Gly(9-fluorenyl)]GIM-OH)

- IC50 [4]: 100000 nM
SMILES: CSCC[C@H](NC(=O)[C@H]1Cc2ccccc2CN1C(=O)[C@@H]1CCCN1C(=O)[C@H](CS)NC(=O)[C@@H](N)CCCCN)C(=O)O

- IC50 (Substance-P receptor [7]): 1200 nM
SMILES: CC[C@H](C)[C@H](NC(=O)CNC(=O)[C@@H]1Cc2ccccc2CN1C(=O)[C@H](Cc1ccccc1)NC(=O)[C@H](CCC(N)=O)NC(=O)[C@H](CCC(=O)O)NC(=O)[C@H](CCCCN)NC(=O)[C@@H]1CCCN1C(=O)[C@@H](N)CCCNC(=N)N)C(=O)N[C@@H](CCSC)C(=O)O (H-RPKEQF[Tic]GIM-OH)

- Ki (Neprilysin): 0.4 nM
SMILES: CC(C)C[C@@H](C(=O)O)N1Cc2ccccc2C[C@H](NC(=O)[C@@H](S)Cc2ccccc2)C1=O

- Ki (Substance-P receptor [5]): 390 nM
SMILES: CC(=O)N1Cc2[nH]c3ccccc3c2C[C@H]1C(=O)OCc1cc(C(F)(F)F)cc(C(F)(F)F)c1

- Ki (B2 bradykinin receptor [1]; read-out: Ki): 571 nM
- Kb (B2 bradykinin receptor [2]): 2510 nM
SMILES: N=C(N)NCCC[C@@H](N)C(=O)N[C@@H](CCCNC(=N)N)C(=O)N1CCC[C@H]1C(=O)N1C[C@H](O)C[C@H]1C(=O)NCC(=O)N[C@@H](Cc1cccs1)C(=O)N[C@@H](CO)C(=O)N1Cc2ccccc2C[C@@H]1C(=O)N1Cc2ccccc2C[C@@H]1C(=O)N[C@@H](CCCNC(=N)N)C(=O)O
